From patent US9359409B2, “Antimicrobial peptides, compositions comprising the same and uses thereof” (priority 2012, dated 2016) come the findings set out here.

Read-outs that look alike come from different tables or passages of the source. Ends that are not written are not given here. Peptide text beside a SMILES is read from it.

Data set [1] relates to Escherichia coli. As for the experimental part: (§1) The 5 designed and synthesized peptides of the invention, plus omiganan (peptide of the state of the art) were evaluated for their antimicrobial capacity in microdilution assays for determining the minimum inhibitory concentration (MIC). A first panel of 8 representative strains was analyzed in these assays, encompassing Gram positive and Gram negative bacteria. […] The lowest MIC values indicate a higher antimicrobial potency.
(§2) Subsequently, an analysis of a panel of clinical isolates including strains with different resistance mechanisms against conventional antibiotics was carried out, all of which are of clinical relevance. […] In Table 3 the results for a panel of Gram negative bacteria are shown, and in Table 4 for a panel of […] bacteria. In these tables the detected gene/s responsible for the resistance against antibiotics for each strain, are included.
(§3) Antimicrobial activity was analyzed by means of the determination of the MIC (minimum inhibitory concentration) by the microdilution technique. The technique was carried out in the standard fashion according to (CLSI M07-A9 Vol. 32 No 2. January 2012). The peptide concentration range used was from 0.5 μg/mL to 512 μg/mL in two-fold serial dilutions. The used medium was MH Difco broth supplemented with cations, at a final concentration of Ca^++20-25 mg/L and Mg^++10-12.5 mg/L. The working inoculum used corresponds to a 1/100 dilution of a bacterial suspension equivalent to 0.5 in the Mc Farland scale.

Data set [2] has as its system Klebsiella pneumoniae. As for the experimental part:
as §1, §2, §3

In data set [3] the test system is Staphylococcus cohnii. On the procedure:
as §1, §2, §3

The test system of data set [4] is Staphylococcus warneri. As for the experimental part:
as §1, §2, §3

In data set [5] the test system is Pseudomonas aeruginosa. Briefly: MIC by broth microdilution. The format is cell-based. On the procedure:
as §1, §2, §3
A general note: In broth dilution the organism is exposed to a series of concentrations in liquid medium.

Data set [6] deals with E. coli. The format is cell-based. As for the experimental part: (§4) In vitro sensitivity assay of aerobically growing bacteria, using the disc diffusion method was performed according to the standards in the M2 document of the CLSI (Clinical and Laboratory Standards Institute: Performance Standards for Antimicrobial Disk Susceptibility Tests.) using the non-amidated peptides
(§5) In brief, intermediate solutions (10×) of the antimicrobial non-amidated peptides were prepared by serial dilutions 1:2, 1:4 and 1:8 by two-fold dilutions. Then, one part of the solution of the antimicrobial peptide 10× was added to nine parts of melted bacteriological agar. The antibiotic solution was added for each dilution, in the melted agar and cooled to 45-50° C. in a water bath. Then, the agar-antibiotic mixture was placed in a Petri dish until a 3-4 mm depth was reached. The inoculum is prepared with a turbidity of 0.5 in the McFarland scale (approximately 1-2 10^8 CFU/ml). The final inoculum required for the agar dilution test is 10^4 colony forming units (CFU) per “spot” having 5-8 mm in diameter. The inoculated plates must be incubated upside down at 35° C. for a period of 16-20 hs. MIC was recorded as the value of the lower dilution completely inhibiting bacterial development, without considering the development of a single colony or a slight film caused by the inoculum deposit. The final point in these cases will correspond to the concentration at which there is more than 80% reduction in growth as compared with the control.

Data set [7] has as its system K. pneumoniae. The format is cell-based. As for the experimental part:
as §4, §5

In data set [8] the test system is P. aeruginosa. The format is cell-based. As for the experimental part: as §4, §5
The test system of data set [9] is S. aureus. The format is cell-based. On the procedure: as §4, §5
For data set [10], the system named is S. cohnii. The format is cell-based. As for the experimental part: as §4, §5
Data set [11] concerns S. warnerii. The format is cell-based. As for the experimental part: as §4, §5
Data set [12] deals with Staphylococcus aureus. Briefly: MIC by broth microdilution. The class given is cell-based. On the procedure:
as §1, §2, §3

Data set [13] has as its system A. baumanii. On the procedure:
as §2, §3

The test system of data set [14] is E. gallinarum. On the procedure:
as §2, §3

Data set [15] concerns E. raffinosus. On the procedure: as §2, §3
Data set [16] concerns S. haemolyticus. On the procedure: as §2, §3
The test system of data set [17] is S. saprophyticus. As for the experimental part:
as §2, §3

Data set [18] concerns human erythrocytes. Briefly: Erythrocyte hemolysis assay (cytotoxicity). The format is cell-based. The following applies: in words. As for the experimental part:
Subsequently, the capacity of the peptides of the invention for lysing human erythrocytes was evaluated, as a measure of their cytotoxicity (Table 2). The assays were carried out according to the Examples and are expressed as a percentage of total lysis obtained with either water or the surfactant Tween 20. In this assays, the lower hemolysis percentage, the lower expected cytotoxic activity.
Evaluation of cytotoxic activity was performed by means of an erythrocyte hemolysis assay (according to Pure Appl. Chem., Vol. 79, No. 4, pp. 717-728, 2007). In brief, from a volume of heparinized human whole blood, 3 times that volume of PBS is added and centrifuged 10 minutes at 1500 rpm, repeating the washing two more times. 10% blood solutions in PBS were prepared with that pellet. Subsequently, each group was added the corresponding peptide at the indicated concentration and incubated at 37° C. for 30 minutes. […]

For the molecule `CC[C@H](C)[C@H](NC(=O)[C@H](CCCCN)NC(=O)[C@H](CCCNC(=N)N)NC(=O)[C@H](CC(N)=O)NC(=O)CNC(=O)[C@H](CCCNC(=N)N)NC(=O)[C@H](Cc1ccccc1)NC(=O)[C@@H](NC(=O)[C@H](CS)NC(=O)[C@H](Cc1c[nH]cn1)NC(=O)[C@H](CC(C)C)NC(=O)[C@@H]1CCCN1C(=O)[C@H](CCC(N)=O)NC(=O)[C@@H]1CCCN1C(=O)[C@@H](NC(=O)[C@H](CC(N)=O)NC(=O)[C@@H]1CCCN1C(=O)[C@H](CC(C)C)NC(=O)CNC(=O)[C@@H](NC(=O)CNC(=O)[C@H](CO)NC(=O)[C@H](CC(C)C)NC(=O)[C@H](CC(C)C)NC(=O)[C@H](CC(=O)O)NC(=O)[C@H](CS)NC(=O)[C@@H](NC(=O)[C@@H](N)[C@@H](C)O)[C@@H](C)O)C(C)C)C(C)C)C(C)C)C(=O)N[C@@H](CCCCN)C(=O)N[C@@H](Cc1c[nH]c2ccccc12)C(N)=O` [peptide 4] (H-TTCDLLSGVGLPNVPQPLHCVFRGNRKIKW-NH2), the MIC in data set [1], in data set [2], in data set [3], in data set [4] and in [5] was over 256 µg/mL each time. Also, the “MIC in agar dilution” value in data set [6], in data set [7], in [8], in data set [9], in [10] and in data set [11] was over 128 µg/mL each time.

Turning to “FGKEKKAWWRRRKWLK-NH2 [peptide 3, FGKEKKAWWRRRKWLK]”, the MIC (usually the least concentration at which growth counts as inhibited) is 64 µg/mL in [1]; 128 µg/mL in [2]; 4 µg/mL in data set [3]; 8 µg/mL in [4]; 128 µg/mL in [5]. Moreover, the “MIC in agar dilution” value in data set [6] was over 128 µg/mL; in data set [7], over 128 µg/mL; in data set [8] it was over 128 µg/mL; in data set [9] it was over 128 µg/mL; in data set [10], 32 µg/mL; in data set [11], 32 µg/mL.

Regarding “RIVQRIKKWLLKWKKLGY-NH2 [peptide 5, RIVQRIKKWLLKWKKLGY]”, the MIC in data set [1] (E. coli ABC11, resistance gene ctx-m-2) is 32 µg/mL; in [1] (E. coli Cos15, resistance gene per + tem), 64 µg/mL; in [1] (E. coli LCA1, resistance gene ctx-m-2 + tem-1), 64 µg/mL; in [1] (E. coli M5306, resistance gene ctx-m-2 + tem-1 + per-2), 64 µg/mL; in data set [1] (E. coli M7859, resistance gene cit), 16 µg/mL; in [1] (E. coli NEU23, resistance gene oxa-GIII + tem), 32 µg/mL. Further, the MIC in data set [5] (P. aeruginosa M7525, resistance gene spm) amounted to 64 µg/mL; in data set [5] (P. aeruginosa M7712, resistance gene spm), 64 µg/mL; in [5] (P. aeruginosa M7723, resistance gene kpc), 32 µg/mL; in data set [5] (P. aeruginosa M7728, resistance gene imp), 64 µg/mL; in [5] (P. aeruginosa M7907, resistance gene per) it was 64 µg/mL; in data set [12] (S. aureus 28, resistance gene ermA), 64 µg/mL. For the same molecule, the MIC is 64 µg/mL in data set [12] (S. aureus 33, resistance gene msrA); 32 µg/mL in [12] (S. aureus 204, resistance gene ermA); 64 µg/mL in [12] (S. aureus 239, resistance gene ermC); 32 µg/mL in [12] (S. aureus ATCC29213, WT); 64 µg/mL in [12] (S. aureus M2832, resistance gene mecA); 32 µg/mL in data set [12] (S. aureus M4046, resistance gene mecA). Besides, the MIC was determined as 64 µg/mL in data set [12] (S. aureus M6276, resistance gene ermA + lnuA); 32 µg/mL in data set [12] (S. aureus M6784, resistance gene mecA); 16 µg/mL in [13] (A. baumanii FAV-1, resistance gene per + oxa-51 + oxa-58); 32 µg/mL in data set [13] (A. baumanii M5179, resistance gene oxa-51); 8 µg/mL in data set [13] (A. baumanii M5277, resistance gene per); 8 µg/mL in data set [13] (A. baumanii M5282, resistance gene oxa-51). For the same molecule, the MIC in data set [13] (A. baumanii M5949, resistance gene oxa-23 + oxa-GVI) was 16 µg/mL; in [13] (A. baumanii M7489, resistance gene oxa-51 + tem) it was 16 µg/mL; in [13] (A. baumanii M7978, resistance gene imp) it was 8 µg/mL; in [13] (A. baumanii M9665, resistance gene oxa-51), 32 µg/mL; in data set [13] (A. baumanii M13523, resistance gene oxa-51), 4 µg/mL; in data set [14] (E. gallinarum M2685, resistance gene vanC1 + vanA), 16 µg/mL. Further, the MIC in data set [14] (E. gallinarum M2723, resistance gene vanC1 + vanA) was 16 µg/mL; in [15], 8 µg/mL; in [16], 8 µg/mL; in data set [17], 8 µg/mL. In addition, the “MIC in agar dilution” value was 64 µg/mL in [6]; over 128 µg/mL in [7]; over 128 µg/mL in [8]; over 128 µg/mL in [9]; 8 µg/mL in [10]; 8 µg/mL in [11]. Moreover, the “therapeutic index (antimicrobial potency over the cytotoxicity percentage)” value in [18] is “highest therapeutic index values”.
